# Measurements as given in patent US9067905B2, “Sulphone compounds and methods of making and using same” (Zafgen, Inc., priority 2009, dated 2015).
# Counter-ions that a name gives are not always drawn.
# Biological target: T1, recombinant human MetAP2 (Homo sapiens, UniProt P50579)
# T1 construct: Flag; made in house; host or cells: Sf9 insect cells
# Experiment: Inhibition of recombinant human MetAP2 activity (Amplex red fluorescence assay)
# Format: biochemical
# Conditions: manganese Flag-MetAP2, 0.75 mM Methionine-Alanine-Serine substrate, 30 minutes at 25° C., pH 7.5, 1% DMSO
# Description: Compounds are tested for their capacity to inhibit recombinant human MetAP2 activity using the following assay.
# Human recombinant Flag-MetAP2 expressed in Sf9 cells followed by affinity purification and EDTA treatment to remove endogenous active site cation is dialysed against MnCl2 to produce the manganese enzyme used in the assay. The assay is carried out for 30 minutes at 25° C. in 50 mM HEPES buffer containing 100 mM NaCl, pH 7.5 the presence of 0.75 mM Methionine-Alanine-Serine (MAS) substrate and 50 μg/ml amino acid oxidase using a dilution of purified MetAP2 giving approximately 50,000 RFU control activity. Cleavage of the substrate by MetAP2 and oxidation of free methionine by amino acid oxidase is detected and quantified using fluorescence generated by Amplex red (10-acetyl-3,7-dihydroxyphenoxazine) in combination with horseradish peroxidase which detects H2O2 released during the oxidation step. The fluorescent signal is detected using a multiwell fluorimeter. Compounds are diluted in DMSO prior to addition to assay buffer, the final DMSO concentration in the assay being 1%.
# The IC50 is defined as the concentration at which a given compound achieves 50% inhibition of control. IC50 values are calculated using the XLfit software package (version 2.0.5).
# T1 sequence (P50579 whole entry): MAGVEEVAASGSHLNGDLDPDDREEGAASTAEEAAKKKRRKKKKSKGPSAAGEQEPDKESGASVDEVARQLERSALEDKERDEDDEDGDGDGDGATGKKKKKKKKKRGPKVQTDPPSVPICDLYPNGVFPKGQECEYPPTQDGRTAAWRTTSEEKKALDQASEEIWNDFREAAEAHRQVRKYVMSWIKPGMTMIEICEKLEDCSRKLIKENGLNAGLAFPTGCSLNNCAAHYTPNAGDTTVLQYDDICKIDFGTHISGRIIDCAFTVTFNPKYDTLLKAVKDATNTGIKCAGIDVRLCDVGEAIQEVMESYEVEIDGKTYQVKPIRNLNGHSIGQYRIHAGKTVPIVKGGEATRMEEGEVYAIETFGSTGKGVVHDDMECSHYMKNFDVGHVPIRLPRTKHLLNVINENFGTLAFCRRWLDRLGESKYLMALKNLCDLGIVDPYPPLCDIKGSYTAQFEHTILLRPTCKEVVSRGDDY
row,IC50 [nM],Compound
1,> 2000,CC#Cc1c(-c2ccoc2)ccc(CS(=O)(=O)c2ccccc2)c1C(=O)O [6-(Benzenesulphonylmethyl)-3-(furan-3-yl)-2-(prop-1-yn-1-yl)benzoic acid]
2,< 200,COc1c(-c2ccoc2)ccc(CS(=O)(=O)c2ccc(F)cc2)c1C(=O)O [6-(4-Fluorobenzenesulphonylmethyl)-3-(furan-3-yl)-2-methoxybenzoic acid]
3,> 2000,COc1cccc(CS(=O)(=O)c2ccccc2)c1C(=O)O [2-(Benzenesulphonylmethyl)-6-methoxybenzoic acid]
4,> 2000,COc1c(-c2ccccc2)ccc(CS(=O)(=O)c2ccccc2)c1C(=O)O [6-(Benzenesulphonylmethyl)-2-methoxy-3-phenylbenzoic acid]
5,> 2000,CCCc1ccc(CS(=O)(=O)c2ccccc2)c(C(=O)O)c1OC [6-(Benzenesulphonylmethyl)-2-methoxy-3-propyl-benzoic acid]
6,> 2000,CCN(CC)CC1CCN1c1ccccc1S(=O)(=O)Cc1ccc(-c2ccoc2)c(OC)c1C(=O)O (stereo not drawn) [6-[2-(2-Diethylaminomethylazetidin-1-yl)-benzenesulphonylmethyl]-3-(furan-3-yl)-2-methoxybenzoic acid]
7,> 2000,Cn1nccc1-c1ccc(CS(=O)(=O)c2ccccc2)c(C(=O)O)c1 [2-(Benzenesulphonylmethyl)-5-(2-methyl-2H-pyrazol-3-yl)benzoic acid]
8,< 200,NCCOc1c(-c2ccoc2)ccc(CS(=O)(=O)c2cccc(Cl)c2)c1C(=O)O [2-(2-Aminoethoxy)-6-(3-chlorobenzenesulphonylmethyl)-3-(furan-3-yl)benzoic acid hydrochloride]
9,> 2000,COCCOc1c(-c2ccoc2)ccc(CS(=O)(=O)c2ccccc2)c1C(=O)O [6-(Benzenesulphonylmethyl)-3-(furan-3-yl)-2-(2-methoxyethoxy)-benzoic acid]
